The values that follow come from US20240382494A1, “THERAPEUTIC COMPOUNDS” (priority 2023, published 2024).

One data set addresses SARS-CoV-2 PLpro (Severe acute respiratory syndrome coronavirus 2, UniProt P0DTD1). The data set is described as follows: FRET-based PLpro enzymatic assay. Type of data set: biochemical. The following applies: 200 nM PLpro, 10 μM FRET substrate, 30 min preincubation at 30° C.; read-out: IC50. How it is done:
The SARS-CoV-2 PL^pro enzymatic assays were carried out as follows. The assay was assembled in 96-well plates with 100 μl of 200 nM PL^Pro protein in PL^Pro reaction buffer [50 mM Hepes (pH 7.5), 0.01% Triton X-100, and 5 mM DTT]. Then, 1 μl of testing compound at various concentrations was added to each well and incubated at 30° C. for 30 minutes. The enzymatic reaction was initiated by adding 1 μl of 1 mM FRET substrate (the final substrate concentration is 10 μM). The reaction was monitored in a Cytation 5 image reader with filters for excitation at 360/40 nm and emission at 460/40 nm at 30° C. for 1 hour. The initial velocity of the enzymatic reaction with and without testing compounds was calculated by linear regression for the first 15 minutes of the kinetic progress curve. The IC50 values were calculated by plotting the initial velocity against various concentrations of testing compounds with a dose-response function in Prism 8 software.

Data set [1] is described as follows: Cytotoxicity assay in Vero E6 cells (neutral red uptake). Type of data set: cell-based. The following applies: African green monkey; Vero E6 cells, 2 days at 37° C., neutral red uptake; read-out: Vero CC50. How it is done:
Briefly, 80.000 cells/ml of the tested cell lines were dispensed into 96-well cell culture plates at 100 μl per well Twenty-four hours later, the growth medium was removed and washed with 150 μl of PBS buffer. Two hundred microliters of fresh serum-free medium containing serial diluted compounds was added to each well. After incubating for 2 days at 37° C., the medium was removed and replaced with 100 μl of DMEM medium containing neutral red (40 μg/ml) and incubated for 2 to 4 hours at 37° C. The amount of neutral red taken up was determined by measuring the absorbance at 540 nm using a Multiskan FC Microplate Photometer (Thermo Fisher Scientific) The CC50 values were calculated from best-fit dose-response curves with variable slope in Prism 8.

Regarding `Cc1ccc(OCCN(C)C)cc1C(=O)N[C@H](C)c1cc(-c2ccc(N)nc2)nc2ccccc12` [Example 9, (R)—N-(1-(2-(6-aminopyridin-3-yl)quinolin-4-yl)ethyl)-5-(2-(dimethylamino)ethoxy)-2-methylbenzamide], on SARS-CoV-2 PLpro, the IC50 is below 0.5 µM. Moreover, the CC50 at 2 days in data set [1] came to 36.2 ± 6.83 µM.

For the compound `Cc1ccc(OCCN(C)C)cc1C(=O)N[C@H](C)c1cc(-c2cnn(CC(F)(F)F)c2)nc2ccccc12` [Example 10, (R)-5-(2-(dimethylamino)ethoxy)-2-methyl-N-(1-(2-(1-(2,2,2-trifluoroethyl)-1H-pyrazol-4-yl)quinolin-4-yl)ethyl)benzamide], the IC50 on SARS-CoV-2 PLpro was below 0.5 µM. Besides, in data set [1], the cytotoxic concentration (CC50) at 2 days stood at 60.8 ± 14.1 µM.

As to `Cc1ccc(OCCN(C)C)cc1C(=O)N[C@H](C)c1cc(Cl)nc2ccccc12` [Example 11, (R)—N-(1-(2-chloroquinolin-4-yl)ethyl)-5-(2-(dimethylamino)-ethoxy)-2-methylbenzamide], the IC50 on SARS-CoV-2 PLpro lay in the range of 0.5 to 1 µM. The CC50 at 2 days in data set [1] came to 101 ± 11.3 µM.

In the case of `Cc1ccc(OCCN(C)C)cc1C(=O)N[C@H](C)c1cc(-c2cnn(CCN(C)C)c2)nc2ccccc12` [Example 12, (R)-5-(2-(dimethylamino)ethoxy)-N-(1-(2-(1-(2-(dimethylamino)ethyl)-1H-pyrazol-4-yl)quinolin-4-yl)ethyl)-2-methylbenzamide], the IC50 on SARS-CoV-2 PLpro was below 0.5 µM. The CC50 at 2 days in data set [1] amounted to 114 ± 18.7 µM.

For the compound `Cc1ccc(OCCN(C)C)cc1C(=O)N[C@H](C)c1cc(-c2ccnn2C)nc2ccccc12` [Example 13, (R)-5-(2-(dimethylamino)ethoxy)-2-methyl-N-(1-(2-(1-methyl-1H-pyrazol-5-yl)quinolin-4-yl)ethyl)benzamide], the IC50 on SARS-CoV-2 PLpro is below 0.5 µM. Moreover, in data set [1], the CC50 at 2 days amounted to 60 ± 8.43 µM.

For the compound `Cc1ccc(OCCN(C)C)cc1C(=O)N[C@H](C)c1cc(-c2cnn(C(C)C)c2)nc2ccccc12` [Example 14, (R)-5-(2-(dimethylamino)ethoxy)-N-(1-(2-(1-isopropyl-1H-pyrazol-4-yl)quinolin-4-yl)ethyl)-2-methylbenzamide], on SARS-CoV-2 PLpro, the IC50 is below 0.5 µM. The CC50 at 2 days in data set [1] was 37.7 ± 5.87 µM.

In the case of `Cc1ccc(OCCN(C)C)cc1C(=O)N[C@H](C)c1cc(-c2ccn[nH]2)nc2ccccc12` [Example 15, (R)—N-(1-(2-(1H-pyrazol-5-yl)quinolin-4-yl)ethyl)-5-(2-(dimethylamino)ethoxy)-2-methylbenzamide], the concentration for half-maximal inhibition (IC50) on SARS-CoV-2 PLpro was below 0.5 µM. Further, the half-maximal cytotoxic concentration (CC50) at 2 days in data set [1] is 63.2 ± 9.51 µM.

As to `Cc1ccc(OCCN(C)C)cc1C(=O)N[C@H](C)c1cc(-c2ccc(CN3CCOCC3)s2)nc2ccccc12` [Example 16, (R)-5-(2-(dimethylamino)ethoxy)-2-methyl-N-(1-(2-(5-(morpholinomethyl)thiophen-2-yl)quinolin-4-yl)ethyl)benzamide], the IC50 at SARS-CoV-2 PLpro is below 0.5 µM. Also, in data set [1], the cytotoxic concentration (CC50) at 2 days was found to be 30.6 ± 10.6 µM.

For `Cc1ccc(OCCN(C)C)cc1C(=O)N[C@@H](C)c1cc(-c2cnn(C(F)F)c2)nc2ccccc12` [Example 18], the IC50 at SARS-CoV-2 PLpro was 0.5 to 1 µM. Also, in data set [1], the CC50 at 2 days is 47.1 ± 6.43 µM.

Turning to `COCCn1cc(-c2cc([C@H](C)NC(=O)c3cc(OCCN(C)C)ccc3C)c3ccccc3n2)cn1` [Example 19, (S)-5-(2-(dimethylamino)ethoxy)-N-(1-(2-(1-(2-methoxyethyl)-1H-pyrazol-4-yl)quinolin-4-yl)ethyl)-2-methylbenzamide], at SARS-CoV-2 PLpro, the IC50 fell in the range of 1 to 5 µM. Also, the CC50 at 2 days in data set [1] was above 125 µM.

On to `Cc1ccc(OCCN(C)C)cc1C(=O)N[C@@H](C)c1cc(-c2cnn(C3CC3)c2)nc2ccccc12` [Example 20, (S)—N-(1-(2-(1-cyclopropyl-1H-pyrazol-4-yl)quinolin-4-yl)ethyl)-5-(2-(dimethylamino)ethoxy)-2-methylbenzamide], for which, on SARS-CoV-2 PLpro, the IC50 is below 0.5 µM. Besides, the CC50 at 2 days in data set [1] stood at 59.6 ± 8.56 µM.

Consider `Cc1ccc(OCCN(C)C)cc1C(=O)N[C@@H](C)c1cc(-c2ccnn2C)nc2ccccc12` [Example 21, (S)-5-(2-(dimethylamino)ethoxy)-2-methyl-N-(1-(2-(1-methyl-1H-pyrazol-5-yl)quinolin-4-yl)ethyl)benzamide], for which the concentration for half-maximal inhibition (IC50) at SARS-CoV-2 PLpro was in the range of 0.5 to 1 µM. Also, the CC50 at 2 days in data set [1] came out at 64.7 ± 8.94 µM.

For `Cc1ccc(OCCN(C)C)cc1C(=O)N[C@H](C)c1cc(-c2cnn(CCO)c2)nc2ccccc12` [Example 22, (R)-5-(2-(dimethylamino)ethoxy)-N-(1-(2-(1-(2-hydroxyethyl)-1H-pyrazol-4-yl)quinolin-4-yl)ethyl)-2-methylbenzamide], at SARS-CoV-2 PLpro, the IC50 is below 0.5 µM. In data set [1], the half-maximal cytotoxic concentration (CC50) at 2 days stood at 153 ± 43.9 µM.

Consider `Cc1ccc(OCCN(C)C)cc1C(=O)N[C@H](C)c1cc(-c2cnn(CC(N)=O)c2)nc2ccccc12` [Example 24, (R)—N-(1-(2-(1-(2-amino-2-oxoethyl)-1H-pyrazol-4-yl)quinolin-4-yl)ethyl)-5-(2-(dimethylamino)ethoxy)-2-methylbenzamide], for which the IC50 at SARS-CoV-2 PLpro was below 0.5 µM. Besides, the CC50 at 2 days in data set [1] is above 250 µM.

Turning to `Cc1ccc(OCCN(C)C)cc1C(=O)N[C@H](C)c1cc(N2CCOCC2)nc2ccccc12` [Example 45, (R)-5-(2-(dimethylamino)ethoxy)-2-methyl-N-(1-(2-morpholinoquinoline-4-yl)ethyl)benzamide], the IC50 on SARS-CoV-2 PLpro lay within 0.5 to 1 µM. For the same compound, the CC50 at 2 days in data set [1] worked out at 166 ± 33.2 µM.

On to `Cc1ccc(OCCN(C)C)cc1C(=O)N[C@H](C)c1cc(-n2cncn2)nc2ccccc12` [Example 47, (R)—N-(1-(2-(1H-1,2,4-triazol-1-yl)quinoline 4-yl)ethyl)-5-(2-(dimethylamino)ethoxy)-2-methylbenzamide], for which, at SARS-CoV-2 PLpro, the IC50 was in the range of 0.5 to 1 µM. The CC50 at 2 days in data set [1] came out at 17.5 ± 5.23 µM.

Take `Cc1ccc(OCCN(C)C)cc1C(=O)N[C@H](C)c1cc(-c2ccc(N3CCN(C)CC3)s2)nc2ccccc12` [Example 48, (R)-5-(2-(dimethylamino)ethoxy)-2-methyl-N-(1-(2-(5-(4-methylpiperazin-1-yl)thiophen-2-yl)quinolin-4-yl)ethyl)benzamide]: the IC50 on SARS-CoV-2 PLpro is below 0.5 µM. In addition, the CC50 at 2 days in data set [1] is 15.4 ± 7.94 µM.

In the case of `Cc1ccc(OCCN(C)C)cc1C(=O)N[C@H](C)c1cc(-c2cccc3[nH]ncc23)nc2ccccc12` [Example 50, (R)—N-(1-(2-(1H-indazol-4-yl)quinolin-4-yl)ethyl)-5-(2-(dimethylamino)ethoxy)-2-methylbenzamide], the half-inhibitory concentration (IC50) on SARS-CoV-2 PLpro was below 0.5 µM. Moreover, in data set [1], the cytotoxic concentration (CC50) at 2 days turned out to be 59.5 ± 25.4 µM.

Take `Cc1ccc(OCCN(C)C)cc1C(=O)N[C@H](C)c1cc(-c2ccc(CN3CCCC3)s2)nc2ccccc12` [Example 51, (R)-5-(2-(dimethylamino)ethoxy)-2-methyl-N-(1-(2-(5-(pyrrolidin-1-ylmethyl)thiophen-2-yl)quinolin-4-yl)ethyl)benzamide]: at SARS-CoV-2 PLpro, the IC50 was below 0.5 µM. In data set [1], the CC50 at 2 days is 27.1 ± 14 µM.

In the case of `Cc1ccc(OCCN(C)C)cc1C(=O)N[C@H](C)c1cc(-c2cnn(CC(=O)O)c2)nc2ccccc12` [Example 53, (R)-2-(4-(4-(1-(5-(2-(dimethylamino)ethoxy)-2-methylbenzamido)ethyl)quinolin-2-yl)-1H-pyrazol-1-yl)acetic acid], on SARS-CoV-2 PLpro, the IC50 is below 0.5 µM. Moreover, the CC50 at 2 days in data set [1] is above 250 µM.

Turning to `Cc1ccc(OCCN(C)C)cc1C(=O)N[C@H](C)c1cc(-c2cc[nH]c(=O)c2)nc2ccccc12` [Example 54, (R)-5-(2-(dimethylamino)ethoxy)-2-methyl-N-(1-(2-(2-oxo-1,2-dihydropyridin-4-yl)quinolin-4-yl)ethyl)benzamide], the IC50 at SARS-CoV-2 PLpro fell in the range of 0.5 to 1 µM. Also, the CC50 at 2 days in data set [1] is above 125 µM.

`Cc1ccc(OCCN(C)C)cc1C(=O)N[C@H](C)c1cc(-c2ccc(CN)s2)nc2ccccc12` [Example 55, (R)—N-(1-(2-(5-(aminomethyl)thiophen-2-yl)quinolin-4-yl)-ethyl)-5-(2-(dimethylamino)ethoxy)-2-methylbenzamide]: the IC50 on SARS-CoV-2 PLpro was below 0.5 µM. Besides, the CC50 at 2 days in data set [1] was determined as 34.6 ± 8.18 µM.

As to `Cc1ccc(OCCN(C)C)cc1C(=O)N[C@H](C)c1cc(-c2ccc3c(c2)OC(F)(F)O3)nc2ccccc12` [Example 56, (R)—N-(1-(2-(2,2-difluorobenzo[d][1,3]dioxol-5-yl)quinolin-4-yl)ethyl)-5-(2-(dimethylamino)ethoxy)-2-methylbenzamid], the IC50 at SARS-CoV-2 PLpro is below 0.5 µM. In addition, the CC50 at 2 days in data set [1] was determined as 15.2 ± 7.09 µM.

Take `Cc1ccc(OCCN(C)C)cc1C(=O)N[C@H](C)c1cc(-c2cncnc2)nc2ccccc12` [Example 57, (R)-5-(2-(dimethylamino)ethoxy)-2-methyl-N-(1-(2-(pyrimidin-5-yl)quinolin-4-yl)ethyl)benzamide]: the 50% inhibitory concentration (IC50) on SARS-CoV-2 PLpro lay within 0.5 to 1 µM. Further, the CC50 at 2 days in data set [1] was 74.6 ± 17.4 µM.

Take `Cc1ccc(OCCN(C)C)cc1C(=O)N[C@H](C)c1cc(OCc2c(F)c(F)c(F)c(F)c2F)nc2ccccc12` [Example 58, (R)-5-(2-(dimethylamino)ethoxy)-2-methyl-N-(1-(2-((perfluorophenyl)methoxy)quinolin-4-yl)ethyl)benzamide]: the IC50 on SARS-CoV-2 PLpro was above 5 µM. Besides, the cytotoxic concentration (CC50) at 2 days in data set [1] is above 50 µM.

By IC50 is commonly meant the midpoint of a concentration-inhibition curve. The term CC50 denotes the concentration that lowers cell viability or growth by half.
